Experimental data taken from paper PMC9927415, “Tyrosine Kinase Inhibitors Display Potent Activity against Cryptosporidium parvum” (Microbiology Spectrum, 2022).
Read-outs that look alike come from different tables or passages of the source.

What was measured:
Test in all cases: KINOMEscan competitive binding
[1] = biological target: T1, AAK1 (Homo sapiens, UniProt Q2M2I8)
T1 construct: purchased DiscoverX (KINOMEscan)
Description: (§1) The kinases were expressed as fusions to T7 bacteriophage. This is a sensitive, competitive binding assay where test compounds were used to displace immobilized ATP-site binding probe ligands from kinases of interest. The amount of kinase that remained bound to the immobilized probe ligands on the solid support was quantified. Percentage inhibition data were was plotted on kinome trees using the web-based tool KinMap (http://www.kinhub.org/kinmap) ([60]).

[2] = biological target: T2, AXL (Homo sapiens, UniProt P30530)
T2 construct: purchased DiscoverX (KINOMEscan)
T2 sequence (P30530 26-894): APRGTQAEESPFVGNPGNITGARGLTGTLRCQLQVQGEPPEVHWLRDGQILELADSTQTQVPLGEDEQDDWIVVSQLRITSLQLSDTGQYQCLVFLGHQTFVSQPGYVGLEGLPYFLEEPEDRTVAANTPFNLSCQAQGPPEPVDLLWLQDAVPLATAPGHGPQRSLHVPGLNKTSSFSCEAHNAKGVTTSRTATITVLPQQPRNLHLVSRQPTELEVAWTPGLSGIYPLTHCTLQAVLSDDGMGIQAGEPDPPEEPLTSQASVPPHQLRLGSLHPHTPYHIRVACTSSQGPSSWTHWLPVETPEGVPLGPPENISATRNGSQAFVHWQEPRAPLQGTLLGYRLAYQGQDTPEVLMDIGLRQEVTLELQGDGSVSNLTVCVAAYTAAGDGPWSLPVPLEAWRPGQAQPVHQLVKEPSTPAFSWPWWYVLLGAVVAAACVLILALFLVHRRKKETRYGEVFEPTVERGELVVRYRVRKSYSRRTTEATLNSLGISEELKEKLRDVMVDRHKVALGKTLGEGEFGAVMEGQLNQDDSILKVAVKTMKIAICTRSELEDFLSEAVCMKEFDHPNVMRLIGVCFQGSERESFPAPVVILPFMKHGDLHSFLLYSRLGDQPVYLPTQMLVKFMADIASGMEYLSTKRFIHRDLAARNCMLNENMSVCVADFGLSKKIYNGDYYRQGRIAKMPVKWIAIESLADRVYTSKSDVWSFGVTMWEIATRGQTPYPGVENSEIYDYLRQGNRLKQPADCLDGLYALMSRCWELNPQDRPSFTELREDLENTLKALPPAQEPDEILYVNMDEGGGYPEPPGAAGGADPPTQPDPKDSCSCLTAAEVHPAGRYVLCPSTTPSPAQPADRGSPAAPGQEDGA
Description: as §1

[3] = biological target: T3, Aurora kinase A (Homo sapiens, UniProt O14965); conditions: 10 µM, n=1; kinase AURKA; read-out: Percent inhibition AURKA
T3 construct: purchased DiscoverX (KINOMEscan)
T3 sequence (O14965 1-403): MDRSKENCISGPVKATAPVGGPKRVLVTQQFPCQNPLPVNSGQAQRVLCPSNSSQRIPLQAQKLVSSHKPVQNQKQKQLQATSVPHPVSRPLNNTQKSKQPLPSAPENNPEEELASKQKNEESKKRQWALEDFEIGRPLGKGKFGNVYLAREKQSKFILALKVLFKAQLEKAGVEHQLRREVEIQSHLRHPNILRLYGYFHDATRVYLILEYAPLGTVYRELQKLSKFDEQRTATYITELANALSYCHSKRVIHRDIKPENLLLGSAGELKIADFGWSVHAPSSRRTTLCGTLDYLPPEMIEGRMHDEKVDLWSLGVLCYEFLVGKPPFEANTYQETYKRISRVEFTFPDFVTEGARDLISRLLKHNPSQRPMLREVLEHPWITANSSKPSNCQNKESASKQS
Description: as §1

[4] = biological target: T4, CLK1 (Homo sapiens, UniProt P49759)
T4 construct: purchased DiscoverX (KINOMEscan)
Description: as §1

[5] = biological target: T5, JAK1(JH2) (Homo sapiens, UniProt P23458)
T5 construct: JAK1(JH2); purchased DiscoverX (KINOMEscan)
Description: as §1

[6] = biological target: T6, KIT (Homo sapiens, UniProt P10721)
T6 construct: purchased DiscoverX (KINOMEscan)
Description: as §1

[7] = biological target: T7, MERTK (Homo sapiens, UniProt Q12866)
T7 construct: purchased DiscoverX (KINOMEscan)
T7 sequence (Q12866 21-999): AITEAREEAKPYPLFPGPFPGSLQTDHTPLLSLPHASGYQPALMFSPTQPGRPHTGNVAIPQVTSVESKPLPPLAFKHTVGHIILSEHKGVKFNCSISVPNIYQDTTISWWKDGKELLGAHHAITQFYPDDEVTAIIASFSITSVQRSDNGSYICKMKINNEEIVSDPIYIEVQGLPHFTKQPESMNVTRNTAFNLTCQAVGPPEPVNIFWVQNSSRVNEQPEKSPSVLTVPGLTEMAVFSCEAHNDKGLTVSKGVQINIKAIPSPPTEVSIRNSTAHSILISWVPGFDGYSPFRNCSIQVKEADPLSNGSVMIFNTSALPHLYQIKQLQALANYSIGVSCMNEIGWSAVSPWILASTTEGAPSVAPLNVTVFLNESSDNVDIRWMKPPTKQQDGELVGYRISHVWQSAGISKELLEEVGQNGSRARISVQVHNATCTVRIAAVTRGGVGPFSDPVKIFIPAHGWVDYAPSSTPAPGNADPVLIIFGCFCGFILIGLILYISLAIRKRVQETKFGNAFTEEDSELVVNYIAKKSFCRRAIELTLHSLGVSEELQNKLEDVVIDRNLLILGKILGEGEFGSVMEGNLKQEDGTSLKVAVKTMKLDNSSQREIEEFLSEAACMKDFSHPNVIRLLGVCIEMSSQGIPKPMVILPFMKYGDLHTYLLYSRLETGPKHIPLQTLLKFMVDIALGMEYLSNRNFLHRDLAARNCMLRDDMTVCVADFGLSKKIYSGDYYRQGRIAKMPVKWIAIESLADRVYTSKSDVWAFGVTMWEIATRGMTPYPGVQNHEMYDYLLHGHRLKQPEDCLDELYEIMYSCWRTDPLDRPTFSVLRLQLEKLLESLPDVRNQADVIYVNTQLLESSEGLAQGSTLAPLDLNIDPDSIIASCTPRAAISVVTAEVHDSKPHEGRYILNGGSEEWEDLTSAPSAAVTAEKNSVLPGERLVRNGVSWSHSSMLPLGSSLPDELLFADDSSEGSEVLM
Description: as §1

[8] = biological target: T8, PDGFRβ (Homo sapiens, UniProt P09619)
T8 construct: purchased DiscoverX (KINOMEscan)
Description: as §1

[9] = 10 µM, n=1, kinase AAK1, read-out: Percent inhibition AAK1
[10] = 10 µM, n=1, kinase AXL, read-out: Percent inhibition AXL
[11] = 10 µM, n=1, kinase CLK1, read-out: Percent inhibition CLK1
[12] = 10 µM, n=1, kinase JAK1(Kin.Dom.1), read-out: Percent inhibition JAK1(Kin.Dom.1)
[13] = 10 µM, n=1, kinase KIT, read-out: Percent inhibition KIT
[14] = 10 µM, n=1, kinase MERTK, read-out: Percent inhibition MERTK
[15] = KINOMEscan, 10 µM, n=1, read-out: Percent inhibition, PDGFRB
[16] = 10 μM, n = 1, read-out: percent inhibition KIT

T5 sequence (P23458 583-855 limits assumed): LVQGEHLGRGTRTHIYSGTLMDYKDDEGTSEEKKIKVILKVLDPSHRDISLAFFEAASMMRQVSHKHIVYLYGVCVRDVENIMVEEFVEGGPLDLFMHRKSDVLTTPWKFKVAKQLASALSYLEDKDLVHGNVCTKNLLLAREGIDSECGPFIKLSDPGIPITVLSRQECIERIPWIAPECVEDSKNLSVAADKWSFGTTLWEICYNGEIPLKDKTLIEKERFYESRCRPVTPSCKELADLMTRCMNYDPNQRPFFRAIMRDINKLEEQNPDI
T6 sequence (P10721 26-976): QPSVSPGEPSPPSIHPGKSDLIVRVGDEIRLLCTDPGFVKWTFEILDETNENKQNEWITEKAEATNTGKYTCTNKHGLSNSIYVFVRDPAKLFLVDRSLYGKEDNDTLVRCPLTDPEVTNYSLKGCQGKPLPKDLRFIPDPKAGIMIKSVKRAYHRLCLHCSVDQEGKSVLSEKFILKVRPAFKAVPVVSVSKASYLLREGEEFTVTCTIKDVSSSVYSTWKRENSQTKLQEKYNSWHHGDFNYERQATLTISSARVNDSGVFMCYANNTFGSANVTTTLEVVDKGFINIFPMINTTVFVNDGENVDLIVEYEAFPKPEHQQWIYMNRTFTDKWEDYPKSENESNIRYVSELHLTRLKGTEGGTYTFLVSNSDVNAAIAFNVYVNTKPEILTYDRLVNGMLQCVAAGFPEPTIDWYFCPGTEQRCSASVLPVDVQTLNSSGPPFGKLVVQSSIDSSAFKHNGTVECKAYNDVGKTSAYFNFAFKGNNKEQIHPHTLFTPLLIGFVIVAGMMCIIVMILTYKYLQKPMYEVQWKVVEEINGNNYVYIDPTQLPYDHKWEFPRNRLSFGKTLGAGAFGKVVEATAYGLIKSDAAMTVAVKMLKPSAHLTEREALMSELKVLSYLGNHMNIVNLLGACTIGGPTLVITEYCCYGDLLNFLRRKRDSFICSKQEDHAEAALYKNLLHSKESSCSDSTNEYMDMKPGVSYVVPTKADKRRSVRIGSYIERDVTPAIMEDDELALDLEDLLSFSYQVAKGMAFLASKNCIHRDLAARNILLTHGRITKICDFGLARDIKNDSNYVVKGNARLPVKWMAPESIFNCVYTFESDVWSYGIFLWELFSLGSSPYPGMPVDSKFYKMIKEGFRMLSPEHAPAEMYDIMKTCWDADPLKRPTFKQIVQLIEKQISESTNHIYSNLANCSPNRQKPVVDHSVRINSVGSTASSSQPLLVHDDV
T4 sequence (P49759 whole entry): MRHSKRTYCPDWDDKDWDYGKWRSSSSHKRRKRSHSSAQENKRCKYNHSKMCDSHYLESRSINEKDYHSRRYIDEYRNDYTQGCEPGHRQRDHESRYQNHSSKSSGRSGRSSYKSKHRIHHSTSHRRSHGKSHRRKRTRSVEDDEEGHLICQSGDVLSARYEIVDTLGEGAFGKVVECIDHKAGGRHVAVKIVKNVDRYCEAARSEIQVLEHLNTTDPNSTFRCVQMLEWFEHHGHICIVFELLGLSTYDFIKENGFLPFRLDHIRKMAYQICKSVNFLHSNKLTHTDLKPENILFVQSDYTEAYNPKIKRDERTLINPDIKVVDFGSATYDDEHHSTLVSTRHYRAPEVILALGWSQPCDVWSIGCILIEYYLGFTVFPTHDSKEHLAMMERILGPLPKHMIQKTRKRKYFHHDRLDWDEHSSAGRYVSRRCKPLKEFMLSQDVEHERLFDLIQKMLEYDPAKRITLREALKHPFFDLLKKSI
T1 sequence (Q2M2I8 whole entry): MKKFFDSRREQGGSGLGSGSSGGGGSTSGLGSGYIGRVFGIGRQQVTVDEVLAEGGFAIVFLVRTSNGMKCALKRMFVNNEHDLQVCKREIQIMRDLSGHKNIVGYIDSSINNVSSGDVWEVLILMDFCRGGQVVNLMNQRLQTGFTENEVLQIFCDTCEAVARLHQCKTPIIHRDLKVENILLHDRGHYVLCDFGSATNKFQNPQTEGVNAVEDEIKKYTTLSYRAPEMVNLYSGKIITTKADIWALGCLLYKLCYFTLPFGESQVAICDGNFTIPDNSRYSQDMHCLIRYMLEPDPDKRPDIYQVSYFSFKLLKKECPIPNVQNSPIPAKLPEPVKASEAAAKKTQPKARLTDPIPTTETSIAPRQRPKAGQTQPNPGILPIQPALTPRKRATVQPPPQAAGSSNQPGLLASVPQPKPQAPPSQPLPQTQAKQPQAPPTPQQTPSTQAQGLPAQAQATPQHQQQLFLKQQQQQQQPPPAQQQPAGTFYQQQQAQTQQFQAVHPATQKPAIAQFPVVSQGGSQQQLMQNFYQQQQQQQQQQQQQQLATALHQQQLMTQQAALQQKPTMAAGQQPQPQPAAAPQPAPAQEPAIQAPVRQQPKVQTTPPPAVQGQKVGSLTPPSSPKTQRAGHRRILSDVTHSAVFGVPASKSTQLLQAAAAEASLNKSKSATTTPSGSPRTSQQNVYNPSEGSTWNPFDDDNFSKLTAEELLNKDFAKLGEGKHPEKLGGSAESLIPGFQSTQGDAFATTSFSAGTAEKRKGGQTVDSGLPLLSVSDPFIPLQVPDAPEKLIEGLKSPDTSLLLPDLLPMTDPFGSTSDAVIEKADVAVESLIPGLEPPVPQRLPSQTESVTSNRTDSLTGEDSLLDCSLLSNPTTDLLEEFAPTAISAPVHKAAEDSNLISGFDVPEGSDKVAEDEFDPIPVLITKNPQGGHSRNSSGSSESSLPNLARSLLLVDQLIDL
T8 sequence (P09619 33-1106): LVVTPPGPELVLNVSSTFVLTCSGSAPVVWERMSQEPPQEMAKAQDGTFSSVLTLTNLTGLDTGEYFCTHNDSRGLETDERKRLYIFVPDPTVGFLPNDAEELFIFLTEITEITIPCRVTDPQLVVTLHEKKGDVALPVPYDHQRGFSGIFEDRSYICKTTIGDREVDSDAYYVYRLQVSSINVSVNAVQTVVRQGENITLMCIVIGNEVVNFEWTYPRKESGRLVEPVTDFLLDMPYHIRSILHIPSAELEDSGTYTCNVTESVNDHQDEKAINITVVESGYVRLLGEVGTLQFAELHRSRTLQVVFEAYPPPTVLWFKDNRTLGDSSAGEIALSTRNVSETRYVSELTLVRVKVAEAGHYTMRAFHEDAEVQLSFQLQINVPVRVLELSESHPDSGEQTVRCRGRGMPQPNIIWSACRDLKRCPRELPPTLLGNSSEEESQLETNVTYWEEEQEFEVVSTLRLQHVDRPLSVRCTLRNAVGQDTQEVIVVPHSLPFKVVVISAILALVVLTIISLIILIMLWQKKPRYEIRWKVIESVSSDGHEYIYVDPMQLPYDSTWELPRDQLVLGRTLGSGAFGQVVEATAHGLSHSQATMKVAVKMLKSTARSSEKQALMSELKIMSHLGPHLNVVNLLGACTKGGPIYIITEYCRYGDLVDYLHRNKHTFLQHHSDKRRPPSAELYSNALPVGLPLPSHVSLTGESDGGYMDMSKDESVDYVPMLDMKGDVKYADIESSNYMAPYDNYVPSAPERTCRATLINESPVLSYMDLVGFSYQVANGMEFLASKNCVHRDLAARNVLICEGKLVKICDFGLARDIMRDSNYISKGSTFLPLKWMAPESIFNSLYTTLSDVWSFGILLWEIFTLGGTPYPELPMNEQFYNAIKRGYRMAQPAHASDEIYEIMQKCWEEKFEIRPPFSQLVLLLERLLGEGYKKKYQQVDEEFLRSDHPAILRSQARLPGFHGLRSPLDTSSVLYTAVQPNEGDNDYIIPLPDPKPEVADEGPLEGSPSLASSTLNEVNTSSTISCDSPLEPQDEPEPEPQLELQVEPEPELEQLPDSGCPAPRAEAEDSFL

**Q.** What does the source list for `COc1cc(Nc2nccc(-c3sc(N)nc3-c3cccc(NC(=O)c4c(F)cccc4F)c3)n2)cc(OC)c1OC` [Compound 7]?
**A.** inhibition at 10 µM [1, 9]: 92.8%; inhibition at 10 µM [2, 10]: 99%; inhibition at 10 µM [3]: 99.5%; inhibition at 10 µM [4, 11]: 0%; inhibition at 10 µM [5, 12]: 0%; inhibition at 10 µM [6, 13]: 100%; inhibition at 10 µM [7, 14]: 99.6%; inhibition at 10 µM [8, 15]: 100%

**Q.** Which inhibition at 10 µM [1, 9] does the source give for `C[C@@H](Oc1cc(-c2cnc3ccccn23)sc1C(N)=O)c1ccccc1Cl` [Compound 8] here?
**A.** Its inhibition at 10 µM is 97.5%.

**Q.** What about the inhibition at 10 µM [2, 10] of the same compound?
**A.** Its inhibition at 10 µM is 89%.

**Q.** And the inhibition at 10 µM [3]?
**A.** The inhibition at 10 µM was 0%.

**Q.** What about the inhibition at 10 µM [4, 11] of the same compound?
**A.** The inhibition at 10 µM was 92.7%.

**Q.** And the inhibition at 10 µM [5, 12]?
**A.** Its inhibition at 10 µM is 87.8%.

**Q.** And the inhibition at 10 µM [6, 13]?
**A.** The inhibition at 10 µM was 0%.

**Q.** What about the inhibition at 10 µM [7, 14] of the same compound?
**A.** The inhibition at 10 µM was 87.6%.

**Q.** What about the inhibition at 10 µM [8, 15] of the same compound?
**A.** The inhibition at 10 µM was 0%.

**Q.** Which results are given for `c1ccc(COc2cccc(-c3ccnc4[nH]ccc34)c2)cc1` [Compound 9]?
**A.** inhibition at 10 µM ([1]; 10 μM, n = 1, read-out: percent inhibition AAK1): ≥ 90%; inhibition at 10 µM [1, 9]: 95.1%; inhibition at 10 µM ([2]; 10 μM, n = 1, read-out: percent inhibition AXL): ≥ 90%; inhibition at 10 µM [2, 10]: 93.8%; inhibition at 10 µM [3]: 0%; inhibition at 10 µM [4, 11]: 0%; inhibition at 10 µM [5, 12]: 0%; inhibition at 10 µM [6, 13]: 0%; inhibition at 10 µM ([7]; 10 μM, n = 1, read-out: percent inhibition MERTK): ≥ 90%; inhibition at 10 µM [7, 14]: 94.1%; inhibition at 10 µM [8, 15]: 0%

**Q.** With `Clc1ccc(Nc2ncc(-c3ccccc3)s2)cc1` [Compound 10] as the compound, how does the inhibition at 10 µM [1, 9] read?
**A.** The inhibition at 10 µM was 0%.

**Q.** What about the inhibition at 10 µM [2, 10] of the same compound?
**A.** The inhibition at 10 µM was 0%.

**Q.** And the inhibition at 10 µM [3]?
**A.** Its inhibition at 10 µM is 0%.

**Q.** What about the inhibition at 10 µM [4, 11] of the same compound?
**A.** The inhibition at 10 µM was 0%.

**Q.** And the inhibition at 10 µM [5, 12]?
**A.** Its inhibition at 10 µM is 0%.

**Q.** And the inhibition at 10 µM [6, 16]?
**A.** The inhibition at 10 µM was over 99%.

**Q.** What about the inhibition at 10 µM [6, 13] of the same compound?
**A.** The inhibition at 10 µM was 99%.

**Q.** And the inhibition at 10 µM [7, 14]?
**A.** The inhibition at 10 µM was 0%.

**Q.** And the inhibition at 10 µM ([8]; 10 μM, n = 1, read-out: percent inhibition PDGFRβ)?
**A.** Its inhibition at 10 µM is over 99%.

**Q.** And the inhibition at 10 µM [8, 15]?
**A.** The inhibition at 10 µM was 99.9%.

**Q.** Which inhibition at 10 µM [1, 9] does the source give for `Nc1ncc2c(-c3ccncc3)c[nH]c2n1` [Compound 11] here?
**A.** Its inhibition at 10 µM is 79.4%.

**Q.** What about the inhibition at 10 µM [2, 10] of the same compound?
**A.** The inhibition at 10 µM was 0%.

**Q.** And the inhibition at 10 µM [3]?
**A.** Its inhibition at 10 µM is 0%.

**Q.** What about the inhibition at 10 µM ([4]; 10 μM, n = 1, read-out: percent inhibition CLK1) of the same compound?
**A.** Its inhibition at 10 µM is at least 99%.

**Q.** And the inhibition at 10 µM [4, 11]?
**A.** The inhibition at 10 µM was 99.2%.

**Q.** What about the inhibition at 10 µM ([5]; 10 μM, n = 1, read-out: percent inhibition JAK1(JH2)) of the same compound?
**A.** Its inhibition at 10 µM is at least 99%.

**Q.** And the inhibition at 10 µM [5, 12]?
**A.** Its inhibition at 10 µM is 99%.

**Q.** And the inhibition at 10 µM [6, 16]?
**A.** The inhibition at 10 µM was at least 99%.

**Q.** And the inhibition at 10 µM [6, 13]?
**A.** The inhibition at 10 µM was 99.3%.

**Q.** What about the inhibition at 10 µM [7, 14] of the same compound?
**A.** The inhibition at 10 µM was 0%.

**Q.** And the inhibition at 10 µM [8, 15]?
**A.** Its inhibition at 10 µM is 93.2%.
